In the NIST ThermoML archive (doi:10.1021/acs.jced.5b00892):
Numbers after ± are expanded uncertainties.

Conditions: Liquid, Gas chromatography

SMILES	vapor or sublimation pressure (310 K) [kPa]	vapor or sublimation pressure (320 K) [kPa]	vapor or sublimation pressure (330 K) [kPa]	vapor or sublimation pressure (340 K) [kPa]	vapor or sublimation pressure (350 K) [kPa]	vapor or sublimation pressure (360 K) [kPa]	vapor or sublimation pressure (370 K) [kPa]	vapor or sublimation pressure (380 K) [kPa]	vapor or sublimation pressure (390 K) [kPa]	vapor or sublimation pressure (400 K) [kPa]	vapor or sublimation pressure (410 K) [kPa]	vapor or sublimation pressure (420 K) [kPa]	vapor or sublimation pressure (430 K) [kPa]	vapor or sublimation pressure (440 K) [kPa]	vapor or sublimation pressure (450 K) [kPa]	vapor or sublimation pressure (460 K) [kPa]	vapor or sublimation pressure (470 K) [kPa]	vapor or sublimation pressure (480 K) [kPa]	vapor or sublimation pressure (490 K) [kPa]	vapor or sublimation pressure (500 K) [kPa]	other results
CC/C=C/C=C/CCCCCCCCOC(C)=O [(9E,11E)-tetradeca-9,11-dienyl acetate]	6.3e-05 ± 3e-05	0.00019 ± 9e-05	0.00051 ± 0.00022	0.0013 ± 0.0006	0.0031 ± 0.0014	0.007 ± 0.003	0.015 ± 0.007	0.03 ± 0.013	0.058 ± 0.024	0.11 ± 0.043	0.19 ± 0.073	0.33 ± 0.12	0.54 ± 0.18	0.87 ± 0.27	1.4 ± 0.39	2.1 ± 0.54	3 ± 0.73	4.4 ± 0.93	6.2 ± 1.1	8.6 ± 1.4	vapor or sublimation pressure (298.15 K): 1.5e-05 ± 9e-06 kPa
CC/C=C/CCCCCCCCCCOC(C)=O [(E)-tetradec-11-enyl acetate]	0.00011 ± 5e-05	0.00032 ± 0.00014	0.00086 ± 0.00037	0.0021 ± 0.0009	0.0049 ± 0.002	0.011 ± 0.005	0.022 ± 0.01	0.044 ± 0.018	0.084 ± 0.035	0.15 ± 0.059	0.27 ± 0.098	0.45 ± 0.16	0.73 ± 0.24	1.2 ± 0.35	1.8 ± 0.5	2.7 ± 0.69	3.9 ± 0.9	5.6 ± 1.2	7.8 ± 1.4	11 ± 1.7	vapor or sublimation pressure (298.15 K): 2.8e-05 ± 1.6e-05 kPa
CCC/C=C\CCCCCCCOC(C)=O [(Z)-dodec-8-enyl acetate]	0.00091 ± 0.00041	0.0023 ± 0.0008	0.0056 ± 0.0016	0.013 ± 0.003	0.027 ± 0.004	0.053 ± 0.006	0.1 ± 0.009	0.19 ± 0.017	0.33 ± 0.032	0.56 ± 0.061	0.93 ± 0.11	1.5 ± 0.19	2.3 ± 0.31	3.5 ± 0.45	5.1 ± 0.63	7.3 ± 0.85	10 ± 1.1	14.1 ± 1.4	19 ± 1.9	25 ± 3.1	vapor or sublimation pressure (298 K): 0.00027 ± 0.00016 kPa
CCCC/C=C\CCCCCCCCCCCCOC(C)=O [(Z)-octadec-13-en-1-yl acetate]	2.2e-06 ± 1.2e-06	8.2e-06 ± 4.2e-06	2.7e-05 ± 1.3e-05	8.3e-05 ± 4e-05	0.00023 ± 0.00012	0.00061 ± 0.0003	0.0015 ± 0.0007	0.0034 ± 0.0017	0.0074 ± 0.0036	0.015 ± 0.007	0.03 ± 0.013	0.056 ± 0.024	0.1 ± 0.041	0.18 ± 0.067	0.3 ± 0.11	0.48 ± 0.16	0.76 ± 0.23	1.2 ± 0.31	1.7 ± 0.42	2.5 ± 0.55	vapor or sublimation pressure (298.15 K): 4.1e-07 ± 2.6e-07 kPa
CCCCCCCC/C=C\CCCOC(C)=O [(Z)-tridec-4-enyl acetate]	0.00042 ± 0.0002	0.0011 ± 0.0004	0.0028 ± 0.0008	0.0065 ± 0.0015	0.0142 ± 0.0024	0.029 ± 0.004	0.058 ± 0.006	0.11 ± 0.01	0.2 ± 0.02	0.34 ± 0.038	0.57 ± 0.072	0.92 ± 0.12	1.5 ± 0.21	2.2 ± 0.32	3.3 ± 0.46	4.8 ± 0.62	6.9 ± 0.81	9.6 ± 1.1	13 ± 1.4	18 ± 2	vapor or sublimation pressure (298 K): 0.00012 ± 8e-05 kPa
CCOC(=O)/C=C(C)/C=C/C[C@@H](C)CCCC(C)C [ethyl (S,2E,4E)-3,7,11-trimethyldodeca-2,4-dienoate]	5.7e-05 ± 2.8e-05	0.00017 ± 8e-05	0.00047 ± 0.0002	0.0012 ± 0.0005	0.0029 ± 0.0013	0.0065 ± 0.0028	0.014 ± 0.006	0.028 ± 0.012	0.054 ± 0.022	0.1 ± 0.041	0.18 ± 0.067	0.3 ± 0.11	0.5 ± 0.17	0.81 ± 0.25	1.3 ± 0.37	1.9 ± 0.52	2.8 ± 0.69	4.1 ± 0.87	5.8 ± 1.1	8 ± 1.3	vapor or sublimation pressure (298.15 K): 1.4e-05 ± 8e-06 kPa
C#CCOC(=O)/C=C(C)/C=C/CC(C)CCCC(C)C (configuration not stated) [prop-2-ynyl (2E,4E)-3,7,11-trimethyldodeca-2,4-dienoate]	1.9e-05 ± 1e-05	6.1e-05 ± 2.8e-05	0.00018 ± 8e-05	0.00049 ± 0.00022	0.0012 ± 0.0006	0.0029 ± 0.0013	0.0065 ± 0.003	0.014 ± 0.006	0.028 ± 0.012	0.053 ± 0.022	0.098 ± 0.039	0.17 ± 0.065	0.29 ± 0.11	0.49 ± 0.16	0.78 ± 0.25	1.2 ± 0.35	1.8 ± 0.48	2.7 ± 0.63	3.9 ± 0.79	5.5 ± 0.96	vapor or sublimation pressure (298.15 K): 4.2e-06 ± 2.4e-06 kPa
